Data set [1] relates to human rheumatoid synovial fibroblast. The experiment in a line: Spontaneous proliferation of human rheumatoid synovial fibroblast. It is filed as cell-based.
The next data set concerns rheumatoid arthritis. The experiment in a line: Placebo-controlled, double blind clinical trial in RA patients who are methotrexate partial responders. It is filed as in vivo, human. The conditions noted are these: 6 mg/day in combination with background methotrexate. As for the experimental part:
120 patients who are methotrexate partial responders are randomized in 2 groups to receive the mTOR inhibitor a) or placebo once daily for 12 weeks while continuing their background methotrexate treatment. There is an initial Screening visit (days −21 to −7) prior to the baseline. Disease status is assessed at the Screening and Baseline visits. During the 12 weeks treatment period the patients will be seen at Weeks 1, 2, 4, 8 and 12 and in the follow-up period at Weeks 14, 16, 20 and 24.
The criteria for inclusion of the patients in the trial: they must have a diagnosis of RA as defined by the […] revised ARA criteria with disease duration of no less than 6 months. All patients must have active RA as defined by the following parameters: • at least 6 swollen and 9 tender joints based on 58/60 joint count upon entry into the study • one of the following: erythrocyte sedimentation rate (ESR) >28 mm/hr, C-reactive protein (CRP)>1.5 mg/dL or morning stiffness>45 minutes
Patients must have received methotrexate for at least 16 weeks and must be on a stable dose (≧7.5 mg/week) and route of administration for at least 8 weeks prior to Day 1. […]
The primary efficacy outcome measure is the attainment of ACR20 criteria for improvement of RA and the proportion of patients in each group meeting the ACR20 criteria is determined. […]

The nature of data set [2]: 4-week toxicity study in rats. It is filed as in vivo. As for the experimental part: (§1) Rapamycin or derivatives thereof are well tolerated at dosages required for use in accordance with the present invention. For example, the NTEL for Compound A in a 4-week toxicity study is 0.5 mg/kg/day in rats and 1.5 mg/kg/day in monkeys.
Another data set relates to paw hyperalgesia. Put plainly: Anti-nociceptive activity in a model of inflammatory pain (intra-plantar yeast hyperalgesia). It is filed as in vivo, male OFA rats. How it is done:
Hyperalgesia is induced by an intra-plantar yeast injection and nociception measured by applying increasing pressure to the foot until the animal vocalizes or withdraws its foot from the pressure pad. The baseline pressure required to induce vocalization or withdrawal of the paw of male OFA rats is measured (−2 hours), followed by an intra-plantar injection of 100 μl of a 20% yeast suspension in water in the hind paw. The rats are treated orally with rapamycin or a derivative thereof (0.5, 2 or 4 mg/kg) or vehicle (saline) p.o. 2 hours later (0 hours), and the pressure test repeated 1 and 2 hours after dosing. The pressure required to induce vocalization or paw withdrawal of the compound-treated rats at these time-points is compared to that of vehicle-treated animals.

The test system of the next data set is IL-1β induced fever. The experiment in a line: IL-1 fever (antipyretic effects). The conditions noted are these: rats, 100 ng IL-1β i.v., p.o. It is filed as in vivo. How it is done: IL-1 fever. Baseline temperature is measured and the rats placed into matched groups. The animals are dosed with the mTOR inhibitor (0.5, 2 or 4 mg/kg) p.o., and 30 minutes later given an injection of 100 ng IL-1β i.v. At time +4hours the final temperatures are measured and the % inhibition calculated as for LPS fever.

For another data set, the system named is LPS induced fever. Put plainly: LPS fever (antipyretic effects). It is filed as in vivo. The conditions noted are these: rats, LPS 100 μg/kg s.c., p.o.; (95% limits). As for the experimental part: LPS fever. An injection of lypopolysaccharide (LPS) at a dose of 100 μg/kg in 5 ml/kg is given subcutaneously, and 2 hours later the temperature is measured using a rectal thermocouple. The rats are then placed into matched treatment groups according to their temperature responses. At time +4 hours, the mTOR inhibitor is administered p.o., and the final temperatures measured again at time +6 hours. The increase in temperature is calculated for each animal and the % inhibition determined for each treatment group compared to the vehicle control group.

A short description of data set [3]: 4-week toxicity study in monkeys. It is filed as in vivo. How it is done: as §1

The record followed here is patent US20070117833A1, “Pharmaceutical compositions” (priority 2003, published 2007).

A value given as a limit tells only on which side of the number the result lay.

For the molecule `CO[C@H]1C[C@@H]2CC[C@@H](C)[C@@](O)(O2)C(=O)C(=O)N2CCCC[C@H]2C(=O)O[C@H]([C@H](C)C[C@@H]2CC[C@@H](OCCO)[C@H](OC)C2)CC(=O)[C@H](C)/C=C(\C)[C@@H](O)[C@@H](OC)C(=O)[C@H](C)C[C@H](C)/C=C/C=C/C=C/1C` [Compound A, 40-0-(2-hydroxyethyl)-rapamycin], in data set [1] (bromodeoxyuridine method), the “concentration at which maximal effects are observed” value is 10 pM. For the same molecule, the “suppression of the growth of synovial cells” value in data set [1] (by both criteria: bromodeoxyuridine incorporation and direct counting of viable cells) was “significantly suppresses”. Besides, in data set [1] (direct cell counting), the “concentration at which maximal effects are shown” value is listed as 10 nM. For the same molecule, the results for the “ACR Responders (in %) to ACR20” value in the data set on rheumatoid arthritis (Week 2) and in the data set on rheumatoid arthritis (Week 12) were 14.8% and 36.1%, respectively. Also, the NTEL in data set [2] came to 0.5 mg/kg/day; in data set [3] it was 1.5 mg/kg/day. In addition, the “inhibition of paw hyperalgesia” value with paw hyperalgesia (2 mg/kg p.o., 1 hour after dosing) is reported as “significantly inhibits”; in the data set with paw hyperalgesia (4 mg/kg p.o., 1 hour after dosing) it was “significantly inhibits”; in the data set on paw hyperalgesia (4 mg/kg p.o., 2 hours after dosing), “significantly inhibits”. Also, the “ED50 inhibition of IL-1β-induced fever” value in the data set on IL-1β induced fever is on record as below 0.54 mg/kg p.o. Moreover, the “ED50 inhibition of LPS-induced fever” value in the data set with LPS induced fever was 1.9 (1.21-2.41) mg/kg p.o.
For the molecule `CO[C@H]1C[C@@H]2CC[C@@H](C)[C@@](O)(O2)C(=O)C(=O)N2CCCC[C@H]2C(=O)O[C@H]([C@H](C)C[C@@H]2CC[C@@H](O)[C@H](OC)C2)CC(=O)[C@H](C)/C=C(\C)[C@@H](O)[C@@H](OC)C(=O)[C@H](C)C[C@H](C)/C=C/C=C/C=C/1C` [rapamycin, Rapamycin, reference compound], in data set [1] (synovial cell growth assessed by total intracellular ATP levels), the “concentration at which suppression is maximal” value worked out at 10 pM.
